What all share (type): in vivo
For assay [1], the system named is male (CFLP LATI) mice. As to the kind of experiment: Anoxic asphyxia (asphyxial anoxia), antihypoxic effect in mice. The note with it: Mus musculus, po, read-out: ED50 asphyxial anoxia. The procedure: (§1) Male (CFLP LATI) mice weighing 24-26 g and male spontaneous hypertensive rats (SHR) weighing 160-180 g were used as test animals. The test compounds were administered orally in a volume of 10 ml/kg 1 hour before the test.
(§2) The mice were treated after 16 hours fasting with the oral dosage of the test compounds. 1 hour after the treatment the animals were placed to 100 ml sealed glasses and the survival time of the animals was measured. The groups consisting of 10 animals and treated with the test compounds were considered protected if the average survival time was by 30 percent longer than the survival of the group treated with placebo. From the percentage of the surviving animals the 50% effective dosage (ED50) was calculated by probit analysis.

In assay [2] the test system is male spontaneous hypertensive rats (SHR). As to the kind of experiment: Hypobaric hypoxia in SHR rats. Conditions: Rattus norvegicus, po, 1 hour before the test, 22.66 kPa, protected = survival 30 percent longer, 95% fiducial limit on next line. The method, then:
as §1
(§3) The rats were placed to a 6-liter exsiccator 1 hour after pretreatment to each exsiccator 2 rats were placed. The pressure was reduced in the exsiccator within 20 seconds to 22.66 kPa (170 Hgmm) and the survival time was measured from this time on until the last breathing movement. Animals which survived by 30 percent longer than the average survival of the control group were considered as protected. From the percentage of the protected animals the ED50 i.e. the 50% effective dosage was calculated by probit analysis with the pertaining 95% fiducial limit.

The subject of assay [3] is male (CFLP LATI) mice. As to the kind of experiment: Hypobaric hypoxia (HH), antihypoxic effect in mice. The note with it: Mus musculus, po, read-out: ED50 hypobaric hypoxia. The procedure: as §1
Animals surviving by 100% longer than the average survival of the control group were considered as protected.

For assay [4], the system named is male (CFLP LATI) mice. Description: Cytotoxic hypoxia (KCN), antihypoxic effect in mice. The note with it: Mus musculus, po, read-out: ED50 cytotoxic hypoxia.
The test system of assay [5] is mice and spontaneous hypertensive rats. As to the kind of experiment: Hypoxic models taken together (asphyxial anoxia, hypobaric hypoxia, cytotoxic hypoxia, hypobaric hypoxia SHR). The procedure: as §1, §2
After 16 hours of fasting and 1 hour of pretreatment the animals were placed to a 6-liter exsiccator and the pressure was reduced within 20 seconds to 22.66 kPa (170 Hgmm), and from this time on the survival time was measured until the last breathing movement. Animals surviving by 100% longer than the average survival of the control group were considered as protected.
The animals were treated after 1 hour pretreatment with an i.v. dosage of 5 mg/kg potassium cyanide. The survival time was measured from the administration of potassium cyanide to the last breathing movement. The protected condition was determined according to the method described for anoxic asphyxia.
as §3
For testing the active ingredients various forms of hypoxia were used. In case of asphyxial anoxia the complete loss of the oxygen supply, at hypobaric hypoxia the reducing of the oxygen saturation condition of the haemoglobin and in case of cytotoxic hypoxia the blocking of the mytochondrial breathing enzime cause a functional disorganisation and necrosis of the cells, even death in otherwise healthy mice. The spontaneous hypertensive rats are more sensitive to the hypoxial influences than the normotensive animals as the survival chance of a person suffering from hypertension is also worse after suffering from hypoxial influences.

Setting [6] is: 1 hour before the test, mice, protected = survival 30 percent longer, probit analysis.
The mark [7] stands for this setting: 1 hour before the test, mice, 22.66 kPa, protected = survival 100% longer, 95% fiducial limit on next line.
The mark [8] stands for this setting: 1 hour before the test, mice, KCN 5 mg/kg i.v., 95% fiducial limit on next line.

As usually defined, the ED50 is the midpoint of the dose-response relation.

For `OC(CCN1CC=C(c2ccccc2)CC1)c1ccc(Cc2ccc(Cl)cc2)cc1` (stereo not drawn) [Example 0207724], the ED50 in the assay with male (CFLP LATI) mice [1] (setting [6]) turned out to be 50 mg/kg; in assay [2] it was 8.2 mg/kg; in the assay on male (CFLP LATI) mice [3] (setting [7]), 27.5 mg/kg; with male (CFLP LATI) mice [4] (setting [8]), 17.5 mg/kg.

For the compound `CC[C@]12CCCN3CCc4c(n(c5ccccc45)[C@@](O)(C(=O)OC)C1)[C@@H]32` [Vincamin, (+)-14β-hydroxy-14α-methoxy-carbonyl-14,15-dihydro-eburnamenine], the ED50 is 51.1 mg/kg in the assay on male (CFLP LATI) mice [1] (setting [6]), 27.9 mg/kg in assay [2], 60.7 mg/kg with male (CFLP LATI) mice [3] (setting [7]) and 27 mg/kg with male (CFLP LATI) mice [4] (setting [8]). Also, in assay [5] (all hypoxic models, in words), the “effect in all hypoxic models used” value is “effective”. Further, the “survival time of the animals” value in assay [5] (all hypoxic models, in words) was “prolonged”.

Take `NC(=O)CN1CCCC1=O` [Piracetam, 2-oxo-1-pyrrolidinyl-acetic amide]: the ED50 in the assay with male (CFLP LATI) mice [1] was 100 mg/kg; with male (CFLP LATI) mice [3], 100 mg/kg; in the assay on male (CFLP LATI) mice [4], 132 mg/kg. In addition, in assay [5] (antihypoxic effect on two models), the “dosage relative to that of vincamine” value is on record as 5-10 times. In assay [5] (number of models on which the effect could be proved), the antihypoxic effect result is listed as “could be proved on two models”.
